Data reported in patent US20240197813A1, “TREATMENT OF DYSPHAGIA” (OT4B, priority 2021, published 2024).
Entries after “also recorded” stand apart in the source; their conditions may differ.

Legend:
[1] = tested on: dysphagia in patient with Prader-Willi syndrome; assay: Case report PATIENT 1: daily intranasal oxytocin, videofluoroscopic swallow study (VFSS); type: in vivo, human; conditions: PWS patient, 8 IU daily intranasal, 3 weeks
Excerpt: PATIENT 1 was […] with Prader-Willi syndrome due to maternal uniparental disomy diagnosed soon after at birth.
The videofluoroscopic swallow study (VFSS) was abnormal with prolonged oesophageal transit and decreased peristalsis and abnormal closure of upper oesophageal sphincter.
They received 8IU of daily intranasal OXT during 3 weeks.

[2] = tested on: dysphagia in patient with neurodevelopmental disorder and hypothalamic disorder; assay: Case report PATIENT 2: daily intranasal oxytocin, VFSS and clinical symptoms; type: in vivo, human; conditions: 16 IU daily intranasal, 3 weeks
Excerpt: PATIENT 2 was […]. They suffered from neurodevelopmental disorder and presented hypothalamic disorder.
The VFSS was abnormal including slow pharyngeal transit with pharyngeal residues and slow oesophageal transit with oesophageal reflux and stasis.
They received daily 16 IU of intranasal OXT during 3 weeks.

[3] = tested on: infants with PWS under 6 months old; conditions: cited from earlier work

With `CC[C@H](C)[C@@H]1NC(=O)[C@H](Cc2ccc(O)cc2)NC(=O)[C@@H](N)CSSC[C@@H](C(=O)N2CCC[C@H]2C(=O)N[C@@H](CC(C)C)C(=O)NCC(N)=O)NC(=O)[C@H](CC(N)=O)NC(=O)[C@H](CCC(N)=O)NC1=O` [oxytocin] the VFSS overall [1] was “improved VFSS”, the “oesophageal transit (VFSS)” value [1] was “improved oesophageal transit; also recorded: improve esophageal transit” and the “peristalsis (VFSS)” value [1] was “complete normalization of peristalsis”. For the same compound, the tolerability of treatment [1] was “well tolerated”, the “upper oesophageal sphincter closure (VFSS)” value [1] was “normal upper oesophageal sphincter closure; also recorded: complete normalization” and the “clinical symptoms of dysphagia” value [2] was “improved clinical symptoms of dysphagia”. For the same compound, the oesophageal transit [2] was “normalize”, the “oropharyngeal initiation and synchronisation” value [2] was “normalize oropharyngeal initiation and synchronization” and the “stasis and reflux on VFSS after treatment” value [2] was “neither stasis nor reflux”. For the same compound, the tolerability of treatment [2] was “well tolerated”, the oesophageal transit ([2]; listed as OXT) was “normalization of oesophageal transit” and the “oropharyngeal initiation and synchronisation” value ([2]; listed as OXT) was “normalization of oropharyngeal initiation and synchronisation”. For the same compound, the “tolerability of intranasal administration” value [3] was “well-tolerated” and the “feeding and social skills” value ([3]; intranasal) was “significantly improves”.
